# Measured values reported in patent US10596160B2, “Compositions, methods and uses for the treatment of diabetes and related conditions by controlling blood glucose level” (PHARNEXT, priority 2012, dated 2020).
# Entries after “also recorded” stand apart in the source; their conditions may differ.
# How the values were obtained:
# [1] = system: beta pancreatic INS-1 cells; test: Prevention of beta cells apoptosis (ssDNA apoptosis detection kit); type: cell-based; parameters: concentration or dose not given beside the values; settings: 1 h pre-incubation then 24 h in apoptotic conditions, drugs tested alone
# Procedure: The beta pancreatic INS-1 cells have been selected for this study. The cells are cultured in complete medium, RPMI 1640 10 mM glucose supplemented with 1 mM sodium pyruvate, 50 μM 2-mercaptoethanol, 2 mM glutamine, 10 mM HEPES, 100 IU/mL penicillin, 100 μg/mL streptomycin and 10% heat-inactivated fetal calf serum (FCS), as described by Asfari et al. (23). INS-1 cells are plated (4.5×10^4 cells/well) in 96-well poly-ornithine coated plates and cultured at 37° C. in a humidified atmosphere of 95% air/5% CO2. The day after, cells are pre-incubated with the tested molecules for 1 h. Then, after a medium change, cells are cultured for 24 h in a medium containing the tested molecules and 30 mM glucose, 0.05 mM myristic acid, 25 ng/mL INF, 25 ng/mL TNF and 5 ng/mL IL.
# The efficacy of compounds to prevent apoptosis is then evaluated by the highly specific apoptosis detection kit from Chemicon (Ref. APT225). This procedure is based on the detection of single-stranded DNA (ssDNA) which is a specific marker of apoptotic cells (24).
# Results are expressed in optical density (OD) arbitrary unit and % of reduction of the apoptosis induced by apoptotic condition. Following a Dunnett t-test, all compounds showing a significant decrease in % of apoptotic cells compared to apoptotic control conditions are considered active.
# [2] = system: hepatocytes; test: Glucose production by hepatic cells; type: cell-based, rat; settings: 10 μM
# Procedure: Hepatocytes are isolated from 24 h-fasted male Wistar rats (200-250 g body weight) by ex situ liver perfusion in the presence of collagenase. Cell viability is validated by a trypan blue exclusion test. […] After plating, the medium is removed and cells are cultured for 16 h in RPMI medium without glucose (supplemented with the tested drugs for long-term evaluation). The following day, hepatic glucose production is assessed in Krebs-Ringer Bicarbonate HEPES buffer (KRBH; pH 7.4) in the presence of the neoglucogenic substrates (lactate 10 mM and pyruvate 1 mM) and the tested molecules for 4 h (short-term).
# Supernatants are collected and glucose concentrations are determined using a glucose oxidase kit (Instrumentation Laboratory 0018250840). In parallel, protein quantification is performed using the colorimetric Lowry method.
# Results are expressed in nmol glucose/mg protein and % of control condition (KLP: KRBH containing lactate and pyruvate).
# [3] = system: H-2 Kb mouse muscle cells; test: Glucose uptake in mouse muscle cells; type: cell-based; settings: H-2 Kb cells, vs non-treated cells
# Procedure: For differentiation in […], cells are switched to non-permissive culture conditions (37° C. in a humidified atmosphere of 95% air/5% CO2; DMEM 5.5 mM D-glucose supplemented with 2% FCS, 10% horse serum, 2% glutamine, 1% chicken embryo, 100 U/mL penicillin, and 100 μg/mL streptomycin).
# For long-term effect evaluation, the day before glucose uptake assay, cells are incubated in DMEM 5.5 mM D-glucose supplemented with 10% horse serum, 2% SVF, 1% chicken embryo, and 2% glutamine in the presence of the tested molecules for 16 h. […]
# For short-term effect evaluation, 4 hours prior to the glucose test, cells are washed and incubated in a serum-free medium (DMEM) containing 5.5 mM D-glucose and the tested molecules. Then glucose uptake is measured by incubation of the cells for 5-10 min with radiolabeled 2-deoxy-D-[1,2^3H] glucose in Krebs-Ringer HEPES buffer (KRBH; pH 7.4), 0.1% Bovine Serum Albumin (BSA), and fraction V (Sigma, A-4503). […] Cell-associated radioactivity is then counted and protein quantification is determined using the colorimetric Lowry method. Glucose uptake is estimated by measuring the radioactivity incorporated to the cells by a MicroBeta counter after adding 600 μL per well of scintillant (Optiphase SuperMix3).
# Protein quantification is performed by a colorimetric assay derived from the Lowry method. […]
# [4] = system: differentiated 3T3-L1 adipocyte cells; test: Glucose uptake in 3T3-L1 adipocyte cells; type: cell-based; settings: 3T3-L1 cells
# Procedure: 3T3-L1 preadipocyte cells were cultured in DMEM containing 1% penicillin-streptomycin (PS) and 10% bovine calf serum at 37° C. in a 5% CO2 atmosphere. […] Differentiation, as measured by the expression of adipogenic markers and the appearance of lipid droplets, usually reaches completion between days 4 and 8. Glucose uptake activity was analyzed by measuring the uptake of radiolabeled glucose. Differentiated 3T3-L1 adipocytes grown in 12-well plates were washed twice with serum-free DMEM and incubated for 2 h at 37° C. with 1 mL DMEM containing 0.1% BSA. […] Next, cells were incubated with or without drugs for different durations in order to evaluate their short-term and long-term effects. To evaluate their short-term effect, cells were incubated with drugs of the invention for 4 hours at 37° C. To evaluate the long-term effect of drugs of the invention, the day prior to the test, cells were pre-incubated with or without drugs for 16 h. The day after, prior to the test, cells were washed and incubated in the presence of the tested molecules for 4 h more. […] After 20 min, glucose uptake was terminated by washing the cells three times with cold PBS. The cells were lysed through incubation for 20 min at 37° C. with 0.7 mL of Triton X-100. Level of radioactivity in the cell lysates was determined using a scintillation counter. Protein quantification was performed by a colorimetric assay derived from the Lowry method.
# [5] = system: beta pancreatic INS-1 cells; test: Insulin secretion in response to glucose stimulation; type: cell-based, rat
# Procedure: The cells are cultured in complete medium, RPMI 1640 10 mM glucose supplemented with 1 mM sodium pyruvate, 50 μM 2-mercaptoethanol, 2 mM glutamine, 10 mM HEPES, 100 IU/mL penicillin, 100 μg/mL streptomycin and 10% heat-inactivated fetal calf serum (FCS), as described by Asfari et al. (23). […] After 3 days of culture at 37° C. in a humidified atmosphere of 95% air/5% CO2, the medium is removed and cells are cultured for 16 h in a medium containing 5 mM glucose, 1% FCS (and the tested drugs for long-term evaluation).
# The cells are washed again with KRBH and incubated for 1 h in KRBH 0.1% BSA containing 3.5 mM glucose and the tested molecules.
# Standards, samples and controls are added to the appropriate wells with a horseradish peroxidase enzyme-labeled monoclonal antibody (conjugate). After incubation, the microplates are washed to remove unbound conjugate and a TMB substrate solution is added to react with the bound conjugate. Finally, after addition of a stop solution, the optical density is measured at 450 nm using a reference wavelength of 620 nm. The intensity of the yellow color is directly proportional to the amount of insulin within the samples.
# [6] = system: TNFα-induced insulin resistant 3T3-L1 differentiated adipocytes; test: Glucose uptake in TNFα-induced insulin resistant 3T3-L1 differentiated adipocytes; type: cell-based; settings: for enhancement of glucose uptake: drug alone, vs non-treated insulin-resistant cells (TNFα); for enhancement of glucose uptake, combination experiment / enhancement of glucose uptake, combination with metformin: vs TNFα cells; for enhancement of glucose uptake, combination experiment: Dunnett's test; for enhancement of glucose uptake, combination with metformin: combined or alone at the same concentrations
# Procedure: 3T3L1 fibroblasts were maintained in DMEM 4.5 g/L glucose supplemented with 5% calf serum donor, 5% newborn calf serum, 100 U/mL penicillin, and 100 μg/mL streptomycin at 37° C. under a 10% CO2 atmosphere. Cells were grown on 24-well plates at a density of 2560 cells/well in 0.5 mL of growth medium (DMEM 4.5 g/L glucose supplemented with 10% FCS, 100 U/mL penicillin, and 100 μg/mL streptomycin). […] Fresh media were replaced after two days.
# Glucose uptake was measured by quantification of incorporated radiolabeled glucose, after an incubation step with 2-deoxy-D[1,2^3H] glucose for 5 min. Glucose uptake was arrested by two washing steps in ice-cold PBS 1×, then were solubilized in 0.1N NaOH for 30 min. Cell-associated radioactivity was then counted using a MicroBeta counter after adding 600 μL per well of scintillant (Optiphase SuperMix3).
# In parallel, protein quantification was determined by a colorimetric assay derived from the Lowry method. Results are expressed in nmol of glucose incorporated/5 mn/mg of protein and in % of control or basal condition (100%).
# [7] = drugs combined at a dose as low as 3.3 nM, or used individually
# [8] = drugs combined at a dose as low as 10 nM, or used individually
# [9] = fenspiride 3.3 nM and metformin 100 μM
compound,measurement,setting,value
NCC(CC(=O)O)c1ccc(Cl)cc1 (racemic) [baclofen],Percentage of apoptosis reduction,[1],84%
O=C[C@@H](O)[C@@H](O)[C@H](O)[C@H](O)CO [D-mannose],reduction of glucose production,[2]; short-term,−22%
same,Percentage of apoptosis reduction,[1],129%
C=CCNc1nc(NCC=C)nc(N2CCN(C(c3ccc(F)cc3)c3ccc(F)cc3)CC2)n1 [almitrine],enhancement of glucose uptake,"[3]; short-term, 1 μM",+80%
same,enhancement of glucose uptake,"[4]; long-term, 1 μM",+69%
same,Percentage of apoptosis reduction,[1],103%
CN1CCCC(n2nc(Cc3ccc(Cl)cc3)c3ccccc3c2=O)CC1 (stereo not shown) [azelastine],reduction of glucose production,[2]; long-term,−36%
same,Percentage of apoptosis reduction,[1],81%
CCN(CC)CCOCCOC(=O)C1(c2ccccc2)CCCC1 [carbetapentane],enhancement of glucose uptake,"[4]; short-term, 0.1 μM (100 nM)",+58%
same,Percentage of apoptosis reduction,[1],103%
C[C@@H](NCCCc1cccc(C(F)(F)F)c1)c1cccc2ccccc12 [cinacalcet],enhancement of insulin secretion,"[5]; long-term pre-treatment, 1 μM",+55%
same,Percentage of apoptosis reduction,[1],167%
CN(C)CC[C@@H](c1ccc(Br)cc1)c1ccccn1 [dexbrompheniramine],Percentage of apoptosis reduction,[1],76%
CCN(CC)C(=O)N1CCN(C)CC1 [diethylcarbamazine],Percentage of apoptosis reduction,[1],44%
O=C1NCC2(CCN(CCc3ccccc3)CC2)O1 [fenspiride],enhancement of glucose uptake,[6]; 0.37 nM,improvement
same,enhancement of glucose uptake,[6]; 1 nM,+130%
same,enhancement of glucose uptake,[6]; 3.3 nM,improvement
same,"enhancement of glucose uptake, combination experiment",[6]; [7],No significant effect
same,"enhancement of glucose uptake, combination experiment",[6]; [8],No significant effect
same,"enhancement of glucose uptake, combination with metformin",[6]; [9],does not lead to any significant improvement; also recorded: No significant effect
C[C@@H]1CC(=O)NN=C1c1ccc(NN=C(C#N)C#N)cc1 [levosimendan],Percentage of apoptosis reduction,[1],118%
CN(C)C(=N)N=C(N)N [metformin],"enhancement of glucose uptake, combination with metformin",[6]; [9],does not lead to any significant improvement; also recorded: No significant effect
same,"enhancement of glucose uptake, combination with metformin",[6]; ifenprodil 3.3 nM and metformin 100 μM,does not lead to any significant improvement; also recorded: No significant effect
Cc1cccc(C)c1OCC(C)N (stereo not shown) [mexiletine],Percentage of apoptosis reduction,[1],74%
CO[C@]12C[C@@H](COC(=O)c3cncc(Br)c3)CN(C)[C@@H]1Cc1cn(C)c3cccc2c13 [nicergoline],enhancement of glucose uptake,"[3]; long-term, 10 μM",+28%
same,Percentage of apoptosis reduction,[1],112%
c1cnc(N2CCN(Cc3ccc4c(c3)OCO4)CC2)nc1 [piribedil],enhancement of glucose uptake,"[4]; short-term, 10 nM",+68%
Cc1c(Cl)cccc1Nc1ccccc1C(=O)O [tolfenamic acid],enhancement of glucose uptake,[6]; 10 nM,+127%
same,enhancement of glucose uptake,[6]; 100 nM,improvement
same,enhancement of glucose uptake,[6]; 1 μM,improvement
same,"enhancement of glucose uptake, combination experiment",[6]; [7],No significant effect
same,"enhancement of glucose uptake, combination experiment",[6]; [8],No significant effect
Cc1ccc(C(=O)C(C)CN2CCCCC2)cc1 (stereo not shown) [tolperisone],Percentage of apoptosis reduction,[1],78%
Cc1cccc(Nc2ccncc2S(=O)(=O)NC(=O)NC(C)C)c1 [torasemide],enhancement of glucose uptake,[6]; 0.37 nM,+121%
same,enhancement of glucose uptake,[6]; 1 nM,+123%
same,enhancement of glucose uptake,[6]; 3.3 nM,+129%
same,Percentage of apoptosis reduction,[1],67%
Nc1nc(N)c2nc(-c3ccccc3)c(N)nc2n1 [triamterene],"enhancement of glucose uptake, combination experiment",[6]; [8],No significant effect
same,enhancement of insulin secretion,"[5]; short-term pre-treatment, 10 μM",+37%
same,Percentage of apoptosis reduction,[1],64%
